Assay results from patent US11345956B2, “Methods and compositions related to prostate cancer therapeutics” (The Johns Hopkins University, priority 2014, dated 2022).
Like-named read-outs stand apart in the source and are kept apart here.

System: metastatic castration-resistant prostate cancer (CRPC)
Conditions: for median overall survival (OS): preliminary survival analysis; for PSA response rate (≥50% PSA decline from baseline, maintained ≥4 weeks): all patients of the cohort; for HR for PFS, AR-V7 presence / HR for PSA-PFS, AR-V7 presence: multivariable Cox model adjusting for AR-FL expression and prior use of the alternative AR-directed agent; for HR for PFS, AR-FL levels / HR for PSA-PFS, AR-FL levels / HR for PFS, previous use of alternative AR-directed agent / HR for PSA-PFS, previous use of alternative AR-directed agent: multivariable Cox model; for HR for PFS, AR-FL levels / HR for PSA-PFS, AR-FL levels: covariate AR-FL level; for HR for PFS, previous use of alternative AR-directed agent / HR for PSA-PFS, previous use of alternative AR-directed agent: previous abiraterone (enzalutamide cohort) or previous enzalutamide (abiraterone cohort); for Hazard Ratio (HR) for PFS, variable AR-FL Level (log) / Hazard Ratio (HR) for PFS, variable AR-V7 Positive / Hazard Ratio (HR) for PFS, variable Prior use of Abiraterone / Hazard Ratio (HR) for PSA-PFS, variable AR-FL Level (log) / Hazard Ratio (HR) for PSA-PFS, variable AR-V7 Positive / Hazard Ratio (HR) for PSA-PFS, variable Prior use of Abiraterone: propensity score weighted multivariable model; for hazard ratio (HR) for OS, AR-V7-positive vs AR-V7-negative / hazard ratio (HR) for PFS, AR-V7-positive vs AR-V7-negative / hazard ratio (HR) for PSA-PFS, AR-V7-positive vs AR-V7-negative: univariate, log-rank
[1] = AR-V7-negative patients (baseline CTCs)
[2] = AR-V7-positive patients (baseline CTCs)
[3] = no previous alternative AR-directed agent (abiraterone/enzalutamide)
[4] = no previous alternative AR-directed agent (abiraterone/enzalutamide), AR-V7 [+]
[5] = no previous alternative AR-directed agent (abiraterone/enzalutamide), AR-V7 [−]
[6] = previous alternative AR-directed agent (abiraterone/enzalutamide), AR-V7 [+]
[7] = previous alternative AR-directed agent (abiraterone/enzalutamide), AR-V7 [−]
[8] = previous alternative AR-directed agent (abiraterone/enzalutamide)

Experimental: Men with metastatic CRPC who were beginning standard-of-care treatment with enzalutamide or abiraterone were prospectively enrolled. Patients were required to have histologically-confirmed prostate adenocarcinoma, progressive disease despite “castration levels” of serum testosterone (<50 ng/dL; and androgen-deprivation therapy had to continue), and radiographic metastases on computed tomography (CT) or technetium-99 bone scans. […] Patients were excluded if they planned to receive additional concurrent anticancer therapies. Prior chemotherapy was permitted, as was previous treatment with the alternative AR-directed agent (i.e. prior abiraterone use in enzalutamide-treated patients, and vice versa).
This was a prospective study evaluating the ability of baseline (pretreatment) AR-V7 status from CTCs (circulating tumor cells) to predict response or resistance to AR-directed agents.
Follow-up was prospectively defined: patients had PSA measurements every 1-2 months, as well as CT (chest/abdomen/pelvis) and technetium-99 bone scans every 2-4 months.
CTC analyses were conducted using the commercially-available ALERE™ CTC AdnaTest platform (AdnaGen, Langenhagen, Germany). Isolation and enrichment of CTCs was performed using the ProstateCancerSelect kit, and mRNA expression analyses were performed using the ProstateCancerDetect kit with multiplexed reverse-transcription polymerase-chain-reaction (qRT-PCR) primers to detect the presence of CTCs, and custom primers designed to detect the full-length-AR (AR-FL) and AR splice variant-7 (AR-V7) (Hu, R., et al. (2009) Cancer Res 69, 16-22). Relative AR-V7 transcript abundance was determined by calculating the ratio of AR-V7 to AR-FL (Hu, R., et al. (2009) Cancer Res 69, 16-22; Watson, P. A., et al. (2010) Proceedings of the National Academy of Sciences).
Best PSA response (maximal percentage PSA decrease from baseline) for each patient was also determined.
Secondary endpoints included freedom-from-PSA-progression (PSA-progression-free-survival; PSA-PFS), freedom-from-clinical/radiographic-progression (progression-free-survival; PFS), and overall survival (OS). PSA-progression was defined as a ≥25% increase in PSA from nadir (and by ≥2 ng/mL), requiring confirmation ≥4 weeks later (PCWG2 criteria) (Scher, H. I., et al. (2008) Journal of Clinical Oncology: Oficial Journal of the American Society of Clinical Oncology 26, 1148-1159).

SMILES	median PSA-progression-free survival (PSA-PFS) (AR-V7-negative patients) [months]	median clinical/radiographic progression-free survival (PFS) (AR-V7-negative patients) [months]	PSA response rate (≥50% PSA decline from baseline) [1] [%]	median overall survival (OS) (AR-V7-negative patients)	median PSA-progression-free survival (PSA-PFS) (AR-V7-positive patients) [months]	median clinical/radiographic progression-free survival (PFS) (AR-V7-positive patients) [months]	PSA response rate (≥50% PSA decline from baseline) [2] [%]	median overall survival (OS) (AR-V7-positive patients) [months]	PSA response rate (≥50% PSA decline from baseline, maintained ≥4 weeks) [%]	HR for PFS, AR-V7 presence	HR for PSA-PFS, AR-V7 presence	HR for PFS, AR-FL levels	HR for PSA-PFS, AR-FL levels	HR for PFS, previous use of alternative AR-directed agent	HR for PSA-PFS, previous use of alternative AR-directed agent	PSA Response [4] [%]	PSA Response [5] [%]	PSA Response [6] [%]	PSA Response [7] [%]	Hazard Ratio (HR) for PFS, variable AR-FL Level (log)	also measured
C[C@]12CC[C@H](O)CC1=CC[C@@H]1[C@@H]2CC[C@]2(C)C(c3cccnc3)=CC[C@@H]12 [abiraterone]	> 5.3	> 6.3	68.0	> 11.9 months	1.3	2.3	0	10.6	54.8	7.6	15.7	1.1	1.0	1.9	0.9	0	74	0	0	1.36	PFA-PFS HR, AR-V7 [+] vs [−] [3]: HR 41.0; PFS HR, AR-V7 [+] vs [−] [3]: HR 28.2; Hazard Ratio (HR) for PFS, variable AR-V7 Positive: 5.25; Hazard Ratio (HR) for PFS, variable Prior use of Abiraterone: 1.72; Hazard Ratio (HR) for PSA-PFS, variable AR-FL Level (log): 1.05; Hazard Ratio (HR) for PSA-PFS, variable AR-V7 Positive: 17.51; Hazard Ratio (HR) for PSA-PFS, variable Prior use of Abiraterone: 0.61; hazard ratio (HR) for OS, AR-V7-positive vs AR-V7-negative: 12.7; hazard ratio (HR) for PFS, AR-V7-positive vs AR-V7-negative: 16.5; hazard ratio (HR) for PSA-PFS, AR-V7-positive vs AR-V7-negative: 16.1
CNC(=O)c1ccc(N2C(=S)N(c3ccc(C#N)c(C(F)(F)F)c3)C(=O)C2(C)C)cc1F [enzalutamide]	6.0	6.1	52.6	not reached	1.4	2.1	0	5.5	32.3	3.0	3.1	1.7	1.4	2.6	2.5	0	80	0	22	1.64	PFA-PFS HR, AR-V7 [+] vs [−] [8]: HR 3.34; PFS HR, AR-V7 [+] vs [−] [8]: HR 2.93; Hazard Ratio (HR) for PFS, variable AR-V7 Positive: 3.38; Hazard Ratio (HR) for PFS, variable Prior use of Abiraterone: 1.54; Hazard Ratio (HR) for PSA-PFS, variable AR-FL Level (log): 1.33; Hazard Ratio (HR) for PSA-PFS, variable AR-V7 Positive: 3.40; Hazard Ratio (HR) for PSA-PFS, variable Prior use of Abiraterone: 2.66; hazard ratio (HR) for OS, AR-V7-positive vs AR-V7-negative: 6.9; hazard ratio (HR) for PFS, AR-V7-positive vs AR-V7-negative: 8.5; hazard ratio (HR) for PSA-PFS, AR-V7-positive vs AR-V7-negative: 7.4
